Test results taken from US20170121322A1, “BET-PROTEIN INHIBITING 3,4-DIHYDROPYRIDO[2,3-B]PYRAZINONES WITH META-SUBSTITUTED AROMATIC AMINO- OR ETHER GROUPS” (Bayer Pharma Aktiengesellschaft, priority 2014, published 2017).

How the values were obtained:
[1] = system: MOLM-13 cells; experiment: Cell proliferation assay MOLM-13, method 1 (alamarBlue); type: cell-based; conditions: Homo sapiens, acute myeloid leukaemia cells, 4000 cells/well, 96-well, 96 hours
Description: (§1) In accordance with the invention, the ability of the substances to inhibit cell proliferation was determined. Cell viability was determined by means of the alamarBlue® reagent (Invitrogen) in a Victor X3 Multilabel Reader (Perkin Elmer). The excitation wavelength was 530 nm and the emission wavelength […].
The MOLM-13 cells (DSMZ, ACC 554) were seeded at a concentration of 4000 cells/well in 100 μl of growth medium (RPMI1640, 10% FCS) on 96-well microtitre plates (method 1).
(§2) After overnight incubation at 37° C., the fluorescence values (CI values) were determined. Then the plates were treated with various substance dilutions (1E-5 M, 3E-6 M, 1E-6 M, 3E-7 M, 1E-7 M, 3E-8 M, 1E-8 M) and incubated at 37° C. over 96 hours (MOLM-13, B16F10, CHL-1 cells) or 120 hours (MOLP-8 cells). Subsequently, the fluorescence values were determined (CO values). For the data analysis, the CI values were subtracted from the CO values and the results were compared between cells which had been treated with various dilutions of the substance or only with buffer solution. The IC50 values (substance concentration needed for 50% inhibition of cell proliferation) were calculated therefrom.
(§3) The substances were tested in the cell lines in Table 2, which represent the indications specified by way of example: […]

[2] = system: B16F10 cells; experiment: Cell proliferation assay B16F10 (alamarBlue); type: cell-based; conditions: Mus musculus, B16-F10, melanoma (BRAF wild-type) cells, 96 hours
Description: as §1
The B16F10 cells (ATCC, CRL-6475) were seeded at a concentration of 300-500 cells/well in 100 μl of growth medium (DMEM with phenol red, 10% FCS) on 96-well microtitre plates.
as §2, §3

[3] = system: CHL-1 cells; experiment: Cell proliferation assay CHL-1 (alamarBlue); type: cell-based; conditions: Homo sapiens, melanoma (BRAF wild-type) cells, 96 hours
Description: as §1
The CHL-1 cells (ATCC, CRL-9446) were seeded at a concentration of 1000 cells/well in 100 μl of growth medium (DMEM with glutamine, 10% FCS) on 96-well microtitre plates.
as §2, §3

[4] = molecular target: T1, BRD4 bromo domain 1 [BRD4(1)] (Homo sapiens, UniProt O60885); experiment: BRD4(1)/acetylated peptide H4 TR-FRET binding assay; conditions: His6-BRD4(1) (aa 67-152) vs acetylated histone H4 peptide
T1 construct: N-terminally His6-tagged BRD4(1) (amino acids 67-152); made in house; host or cells: E. coli
Outline: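 His6-tagged BRD4(1) (aa 67-152, E. coli-expressed; 10 nM) pre-incubated with compound (0.1 nM–20 μM, duplicates) for 10 min at 22 °C in HEPES pH 7.5 buffer, then biotinylated tetra-acetylated H4 peptide with TR-FRET reagents added. After 1 h at 22 °C and ≥3 h at 4 °C, the 665/620 nm ratio was read; IC50 from a 4-parameter fit.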

SMILES | IC50 [1] [nM] | IC50 [2] [nM] | IC50 [3] [nM] | IC50 [4] [nM]
COc1ccc(S(=O)(=O)C2CCOCC2)cc1Nc1ccc2c(n1)N(C1CCOCC1)[C@H](C)C(=O)N2C [Example 34, (3R)-6-{[2-Methoxy-5-(tetrahydro-2H-pyran-4-ylsulphonyl)phenyl]amino}-1,3-dimethyl-4-(tetrahydro-2H-pyran-4-yl)-3,4-dihydropyrido[2,3-b]pyrazin-2(1H)-one] | 32 | 32 | 30 | 22
COc1ccc(S(=O)(=O)C2CC2)cc1Nc1ccc2c(n1)N(C1CCOCC1)[C@H](C)C(=O)N2C [Example 8, (3R)-6-{[5-(Cyclopropylsulphonyl)-2-methoxyphenyl]amino}-1,3-dimethyl-4-(tetrahydro-2H-pyran-4-yl)-3,4-dihydropyrido[2,3-b]pyrazin-2(1H)-one] | 24 | 37 | 18 | 23
C[C@@H]1C(=O)N(C)c2ccc(Nc3cccc(S(C)(=O)=O)c3)nc2N1C1CCCCCC1 [Example 5, (3R)-4-Cycloheptyl-1,3-dimethyl-6-{[3-(methylsulphonyl)phenyl]amino}-3,4-dihydropyrido[2,3-b]pyrazin-2(1H)-one] | 651 | 611 | 371 | 152
CCOC(=O)N=S(C)(=O)c1cccc(Nc2ccc3c(n2)N(C2CCOCC2)[C@H](C)C(=O)N3C)c1 (mixture of isomers) [Example 10, Ethyl [(3-{[(3R)-1,3-dimethyl-2-oxo-4-(tetrahydro-2H-pyran-4-yl)-1,2,3,4-tetrahydropyrido[2,3-b]pyrazin-6-yl]amino}phenyl)(methyl)oxido-λ^6-sulphanylidene]carbamate] | 368 | 304 | 196 | 3630
COc1ccc(S(C)(=O)=O)cc1Nc1ccc2c(n1)N(C(C)C)[C@H](C)C(=O)N2C [Example 14, (3R)-4-Isopropyl-6-{[2-methoxy-5-(methylsulphonyl)phenyl]amino}-1,3-dimethyl-3,4-dihydropyrido[2,3-b]pyrazin-2(1H)-one] | 205 | 248 | 118 | 173
